Measured values as given in US9040523B2, “Antifungal 5,6-dihydro-4H-pyrrolo[1,2-α][1,4]-benzodiazepines and 6H-pyrrolo[1,2-α][1,4]benzodiazepines substituted with benzene derivatives” (JANSSEN PHARMACEUTICA NV, priority 2010, dated 2015).
Counter-ions that a name gives are not always drawn.

Legend:
Format in all cases: cell-based
[1] = tested on: Sporothrix schenkii B62482; assay: Antifungal activity in vitro (resazurin susceptibility screen), Inf. A; conditions: 27 °C, 4 days, resa time 24 hours, highest in-test concentration 64 μM; for Inf. A pIC50: Sporothrix schenkii B62482; for IC50: Sporothrix, B62482, Sporothrix schenkii B62482, read-out: Inf. A pIC50 (converted)
Experimental: (§1) The standard susceptibility screen was performed in 96-well plates (U-bottom, Greiner Bio-One). […] These serial dilutions (10 n1) were then spotted onto test-plates that could be stored in the dark at 4° C. for a maximum period of 2 weeks. […] The different fungal species/isolates (Table 3a) were cryopreserved and 1/1000 diluted in medium just prior to use. A standard inoculum of 200 μl containing 10^3 colony-forming unit (cfu) was then added to each well. A positive control (100% growth=fungal culture without antifungal) and a negative control (0% growth ═RPMI-MOPS medium) were included on each plate. […] [table]

[2] = tested on: Candida parapsilosis B66126; assay: Antifungal activity in vitro (resazurin susceptibility screen), Inf. D; conditions: Candida parapsilosis B66126, 37 °C, 24 hours, resa time 4 hours; for IC50: Lodderomyces parapsilosis, read-out: Inf. D pIC50 (converted)
Experimental: (§2) The standard susceptibility screen was performed in 96-well plates (U-bottom, Greiner Bio-One). […] These serial dilutions (10 n1) were then spotted onto test-plates that could be stored in the dark at 4° C. for a maximum period of 2 weeks. […] A standard inoculum of 200 μl containing 10^3 colony-forming unit (cfu) was then added to each well. A positive control (100% growth=fungal culture without antifungal) and a negative control (0% growth ═RPMI-MOPS medium) were included on each plate.

[3] = tested on: Aspergillus fumigatus B42928; assay: Antifungal activity in vitro (resazurin susceptibility screen), Inf. E; conditions: Aspergillus fumigatus B42928, 27 °C, 48 hours, resa time 17 hours; for IC50: read-out: Inf. E pIC50 (converted)
Experimental: as §1

[4] = tested on: Trichophyton mentagrophytes B70554; assay: Antifungal activity in vitro (resazurin susceptibility screen), Inf. G; conditions: 27 °C, 7 days, resa time 24 hours; for Inf. G pIC50: Trichophyton mentagrophytes B70554; for IC50: Trichophyton mentagrophytes, B70554, Trichophyton mentagrophytes B70554, read-out: Inf. G pIC50 (converted)
Experimental: as §2

Microsporum canis B68128 = assay: Antifungal activity in vitro (resazurin susceptibility screen), Inf. B; conditions: 27 °C, 9 days, resa time 24 hours; for Inf. B pIC50: Microsporum canis B68128; for IC50: Microsporum canis, B68128, Microsporum canis B68128, read-out: Inf. B pIC50 (converted)
Experimental: as §2

[5] = tested on: Trichophyton rubrum B68183; assay: Antifungal activity in vitro (resazurin susceptibility screen), Inf. C; conditions: Trichophyton rubrum B68183, 27 °C, 7 days, resa time 24 hours; for IC50: read-out: Inf. C pIC50 (converted)
Experimental: as §1

[6] = tested on: Cryptococcus neoformans B66663; assay: Antifungal activity in vitro (resazurin susceptibility screen), Inf. F; conditions: 37 °C, 24 hours, resa time 4 hours; for Inf. F pIC50: Cryptococcus neoformans B66663; for IC50: Cryptococcus neoformans, B66663, Cryptococcus neoformans B66663, read-out: Inf. F pIC50 (converted)
Experimental: as §1

Compound	Inf. A pIC50 [1]	Inf. D pIC50 [2]	Inf. E pIC50 [3]	Inf. G pIC50 [4]	Inf. B pIC50 (Microsporum canis B68128)	Inf. C pIC50 [5]	Inf. F pIC50 [6]	IC50 [1] [µM]	IC50 [2] [µM]	IC50 [3] [µM]	IC50 (Microsporum canis B68128) [µM]	IC50 [5] [µM]	IC50 [6] [µM]	IC50 [4] [µM]
CC(O)c1ccc(C2NCc3c(ccc(Cl)c3Cl)-n3cccc32)cc1.Cl (stereo not drawn) [Compound 2, 4-(7,8-dichloro-5,6-dihydro-4H-pyrrolo[1,2-a][1,4]benzodiazepin-4-yl)-alpha-methyl-benzenemethanol .HCl]	<4.2	<4.2	<4.2	<4.2	4.7	<4.2	<4.2							
CC(O)c1ccc(C2NCc3cc(Cl)cc(Cl)c3-n3cccc32)cc1.Cl (stereo not drawn) [Compound 3, 4-(8,10-dichloro-5,6-dihydro-4H-pyrrolo[1,2-a][1,4]benzodiazepin-4-yl)-alpha-methyl-benzenemethanol .HCl]	<4.2	<4.2	<4.2	4.4	5.0	6	4.7							
CC(=O)c1cccc(C2NCc3c(Cl)cccc3-n3cccc32)c1 (stereo not shown) [Compound 4, 1-[3-(7-chloro-5,6-dihydro-4H-pyrrolo[1,2-a][1,4]benzodiazepin-4-yl)phenyl]-ethanone]								> 63.1	> 63.1	> 63.1	10	5.01	> 63.1	
Br.CC(=O)c1ccc(C2NCc3c(Cl)cccc3-n3cccc32)cc1 (stereo not shown) [Compound 6, 1-[4-(7-chloro-5,6-dihydro-4H-pyrrolo[1,2-a][1,4]benzodiazepin-4-yl)phenyl]-ethanone .HBr]	4.7	<4.2	4.5		6.2	6.4	<4.2							
CC(=O)c1cc(C2NCc3c(Cl)cccc3-n3cccc32)ccc1F.Cl (stereo not shown) [Compound 7, 1-[5-(7-chloro-5,6-dihydro-4H-pyrrolo[1,2-a][1,4]benzodiazepin-4-yl)-2-fluorophenyl]-ethanone .HCl]	<4.2	<4.2	<4.2	5.2	5.1	6.0	<4.2							
CC(=O)c1ccc(C2NCc3c(ccc(Cl)c3Cl)-n3cccc32)cc1.Cl (stereo not shown) [Compound 9, 1-[4-(7,8-dichloro-5,6-dihydro-4H-pyrrolo[1,2-a][1,4]benzodiazepin-4-yl)phenyl]-ethanone .HCl]	5.0	<4.2	<4.2	4.5	5.6	5.7	4.5							
CC(=O)c1cccc(C2NCc3c(Cl)cc(Cl)cc3-n3cccc32)c1.Cl (stereo not shown) [Compound 10, 1-[3-(7,9-dichloro-5,6-dihydro-4H-pyrrolo[1,2-a][1,4]benzodiazepin-4-yl)phenyl]-ethanone .HCl]	<4.2	<4.2	<4.2	5.2	5.3	5.7	<4.2							
CC(=O)c1ccc(C2NCc3c(Cl)cc(Cl)cc3-n3cccc32)cc1.Cl (stereo not shown) [Compound 12, 1-[4-(7,9-dichloro-5,6-dihydro-4H-pyrrolo[1,2-a][1,4]benzodiazepin-4-yl)phenyl]-ethanone .HCl]	<4.2	<4.2	<4.2	5.1	4.9	5.7	<4.2							
CS(=O)(=O)c1cccc(C2=NCc3c(Cl)cccc3-n3cccc32)c1 [Compound 27]	<4.2	<4.2	<4.2	5.1	5.2	5.1	4.2							
CS(=O)(=O)c1ccc(C2=NCc3c(Cl)cc(Cl)cc3-n3cccc32)cc1 [Compound 30, 7,9-dichloro-4-[4-(methylsulfonyl)phenyl]-6H-pyrrolo[1,2-a][1,4]benzodiazepine]								50.1	> 63.1	63.1	3.98	2	15.8	6.31
OCCc1ccc(C2NCc3c(Cl)cc(Cl)cc3-n3cccc32)cc1 (stereo not shown) [Compound 34, 4-(7,9-dichloro-5,6-dihydro-4H-pyrrolo[1,2-a][1,4]benzodiazepin-4-yl)-benzeneethanol .HCl]								> 63.1	> 63.1	> 63.1	2	12.6	31.6	20
Cl.OCCc1ccc(C2NCc3c(Cl)cccc3-n3cccc32)cc1 (stereo not shown) [Compound 35, 4-(7-chloro-5,6-dihydro-4H-pyrrolo[1,2-a][1,4]benzodiazepin-4-yl)-benzeneethanol .HCl]	<4.2	<4.2	<4.2	4.9	4.4	5.1	4.3							
Cl.OCCc1ccc(C2NCc3cc(Cl)cc(Cl)c3-n3cccc32)cc1 (stereo not shown) [Compound 36, 4-(8,10-dichloro-5,6-dihydro-4H-pyrrolo[1,2-a][1,4]benzodiazepin-4-yl)-benzeneethanol .HCl]	<4.2	<4.2	<4.2	4.7	4.3	4.5	4.6							
Cl.OCCc1ccc(C2NCc3c(ccc(Cl)c3Cl)-n3cccc32)cc1 (stereo not shown) [Compound 37, 4-(7,8-dichloro-5,6-dihydro-4H-pyrrolo[1,2-a][1,4]benzodiazepin-4-yl)-benzeneethanol .HCl]	4.8	<4.2	4.4	4.4	<4.2	4.5	5.0							
Cl.OCCc1ccc(C2NCc3c(Cl)ccc(Cl)c3-n3cccc32)cc1 (stereo not shown) [Compound 38, 4-(7,10-dichloro-5,6-dihydro-4H-pyrrolo[1,2-a][1,4]benzodiazepin-4-yl)-benzeneethanol .HCl]	<4.2	<4.2	<4.2	4.7	5.7	5.1	4.7							
